Here are results for five compounds from patent publication US20180282331A1, “7-Oxo -6-(sulfooxy)- 1,6-diazabicyclo [3.2.1] octane containing compounds and their use in treatment of bacterial infections (changed by PCT to: 7-OXO -6-(SULFOOXY)- 1,6-DIAZABICYCLO [3.2.1] OCTANE CONTAINING COMPOUNDS AND THEIR USE IN TREATMENT OF BACTERIAL INFECTIONS” (WOCKHARDT LIMITED, priority 2015, published 2018).

Each structure is given as a SMILES string.

As usually defined, the MIC is the lowest concentration found to suppress growth.

Assay type in all cases: cell-based
In assay [1] the test system is E. coli NCTC 13352. Put plainly: MIC of Ceftazidime in combination with compound (4 mcg/ml), agar dilution. The settings on record: Escherichia coli, NCTC13352, Ceftazidime alone or with constant 4 mcg/ml of compound. The protocol:
(§1) The biological activity of representative compounds according to the invention against various bacterial strains was investigated. The Minimum Inhibitory Concentration (MIC) determination for the combinations was carried out in Muller Hinton Agar (MHA) (BD, USA) according to Clinical and Laboratory Standards Institute (CLSI) recommendations, (Clinical and Laboratory Standards Institute (CLSI), Performance Standards for Antimicrobial Susceptibility Testing, 20th Informational Supplement, M 100-S20, Volume 30, No. 1, 2010). In short, the test strains were adjusted to deliver about 10^4 CFU per spot with a multipoint inoculator (Applied Quality Services, UK). The plates were poured with MHA containing doubling concentration range of representative compounds according to present invention. The plates were inoculated and were incubated at 35° C. for 18 hours. […] The Table 5 depicts the antibacterial activity profile of compounds according to present invention against various multidrug resistant bacterial strains.
(§2) The combinations of compounds according to present invention were also tested for their antibacterial activity in combination with Ceftazidime. The plates were poured with MHA containing doubling concentration range of Ceftazidime in combination with constant concentration (4 mcg/ml) of representative compounds of Formula (I).

Assay [2] relates to E. coli 7 MP. The description is as above. The settings on record: Escherichia coli, Ceftazidime alone or with constant 4 mcg/ml of compound. On the procedure: as §1, §2
For assay [3], the system named is K. pneumoniae H521. The description is as above. Particulars: Klebsiella pneumoniae, Ceftazidime alone or with constant 4 mcg/ml of compound. The protocol:
as §1, §2

Assay [4] deals with E. coli M 50. The description is as above. Particulars: Escherichia coli, M50, Ceftazidime alone or with constant 4 mcg/ml of compound. The protocol: as §1, §2
The test system of assay [5] is K. pneumoniae ATCC 700603. Described as above. The settings on record: Klebsiella pneumoniae, ATCC700603, Ceftazidime alone or with constant 4 mcg/ml of compound. The protocol:
as §1, §2

Assay [6] deals with K. pneumoniae H525. Described as above. Particulars: Klebsiella pneumoniae, Ceftazidime alone or with constant 4 mcg/ml of compound. On the procedure: as §1, §2
Assay [7] concerns E. coli NCTC 13353. The description is as above. The settings on record: Escherichia coli, NCTC13353, Ceftazidime alone or with constant 4 mcg/ml of compound. On the procedure: as §1, §2
For assay [8], the system named is E. coli NCTC 13352. Put plainly: MIC, agar dilution (MHA), compound alone. Particulars: Escherichia coli, NCTC13352; E. coli NCTC 13352; compound alone; MHA, 35° C., 18 hours; read-out: MIC. On the procedure:
as §1
In general terms: Agar dilution tests growth on a series of plates holding different concentrations.

Assay [9] concerns E. coli 7 MP. In words: MIC, agar dilution (MHA), compound alone. The settings on record: Escherichia coli; E. coli 7 MP; compound alone; MHA, 35° C., 18 hours; read-out: MIC. On the procedure:
as §1

Assay [10] relates to K. pneumoniae H521. Put plainly: MIC, agar dilution (MHA), compound alone. Particulars: Klebsiella pneumoniae; K. pneumoniae H521; compound alone; MHA, 35° C., 18 hours; read-out: MIC. On the procedure:
as §1

Assay [11] has as its system E. coli M 50. Put plainly: MIC, agar dilution (MHA), compound alone. Particulars: Escherichia coli, M50; E. coli M 50; compound alone; MHA, 35° C., 18 hours; read-out: MIC. The protocol: as §1
For assay [12], the system named is K. pneumoniae ATCC 700603. Put plainly: MIC, agar dilution (MHA), compound alone. The settings on record: Klebsiella pneumoniae, ATCC700603; K. pneumoniae ATCC 700603; compound alone; MHA, 35° C., 18 hours; read-out: MIC. On the procedure:
as §1

The test system of assay [13] is K. pneumoniae H525. In words: MIC, agar dilution (MHA), compound alone. The settings on record: Klebsiella pneumoniae; K. pneumoniae H525; compound alone; MHA, 35° C., 18 hours; read-out: MIC. The protocol:
as §1

The test system of assay [14] is E. coli NCTC 13353. Put plainly: MIC, agar dilution (MHA), compound alone. The settings on record: Escherichia coli, NCTC13353; E. coli NCTC 13353; compound alone; MHA, 35° C., 18 hours; read-out: MIC. On the procedure: as §1

For the compound `CC(C)(O/N=C(\C(=O)N[C@@H]1C(=O)N2C(C(=O)[O-])=C(C[n+]3ccccc3)CS[C@H]12)c1csc(N)n1)C(=O)O` [Ceftazidime], the MIC in the assay on E. coli NCTC 13352 [1] was 16 µg/mL; with E. coli 7 MP [2] it was greater than 32 µg/mL; in the assay on K. pneumoniae H521 [3], greater than 32 µg/mL; with E. coli M 50 [4], greater than 32 µg/mL; in assay [5], 16 µg/mL; with K. pneumoniae H525 [6] it was greater than 32 µg/mL. The MIC in the assay with E. coli NCTC 13353 [7] is greater than 32 µg/mL.
As to `O=C(NOCCn1cnnn1)[C@@H]1CC[C@@H]2CN1C(=O)N2OS(=O)(=O)[O-].[Na+]` [Example 51], the MIC in the assay with E. coli NCTC 13352 [8] is 8 µg/mL; in the assay on E. coli 7 MP [9], 16 µg/mL; with K. pneumoniae H521 [10], greater than 32 µg/mL; with E. coli M 50 [11], 4 µg/mL; in assay [12] it was greater than 32 µg/mL; with K. pneumoniae H525 [13], greater than 32 µg/mL. In addition, the MIC in the assay with E. coli NCTC 13353 [14] worked out at 4 µg/mL.
For the compound `Cc1nnnn1CCONC(=O)[C@@H]1CC[C@@H]2CN1C(=O)N2OS(=O)(=O)[O-].[Na+]` [Example 53], the MIC is 8 µg/mL in the assay with E. coli NCTC 13352 [8]; 32 µg/mL with E. coli 7 MP [9]; 16 µg/mL with K. pneumoniae H521 [10]; greater than 32 µg/mL with E. coli M 50 [11]; greater than 32 µg/mL in assay [12]; 16 µg/mL with K. pneumoniae H525 [13]. Also, in the assay with E. coli NCTC 13353 [14], the MIC was determined as 4 µg/mL.
Take `O=C(NOCCn1nnc(CCO)n1)[C@@H]1CC[C@@H]2CN1C(=O)N2OS(=O)(=O)[O-].[Na+]` [Example 55]: the MIC is 32 µg/mL in the assay on E. coli NCTC 13352 [8]; greater than 32 µg/mL in the assay with E. coli 7 MP [9]; greater than 32 µg/mL in the assay with K. pneumoniae H521 [10]; 16 µg/mL in the assay on E. coli M 50 [11]; greater than 32 µg/mL in [12]; greater than 32 µg/mL with K. pneumoniae H525 [13]. Besides, the MIC with E. coli NCTC 13353 [14] is 16 µg/mL.
In the case of `O=C(NOCCn1nnnc1CCO)[C@@H]1CC[C@@H]2CN1C(=O)N2OS(=O)(=O)[O-].[Na+]` [Example 56], the MIC with E. coli NCTC 13352 [8] was 8 µg/mL; in the assay with E. coli 7 MP [9], greater than 32 µg/mL; in the assay on K. pneumoniae H521 [10], 8 µg/mL; with E. coli M 50 [11], 4 µg/mL; in [12], greater than 32 µg/mL; with K. pneumoniae H525 [13], 16 µg/mL. Also, in the assay on E. coli NCTC 13353 [14], the MIC came to 4 µg/mL.
